This data set in a line: Human HepG2 cell viability assay in 384 well format. In kind it is toxicity, cell-based. Further details: dose 125 nL, time 70.5 hour; concentration not given beside the values. As to conditions: HepG2 cells, read-out: Inhibition.
Turning to `OCCN1CCC(CNCc2ccc(N3CCCCC3)cc2)CC1`, the cytotoxicity at 70.5 h turned out to be 1.15%.

Take `Cc1cnc(C(=O)N2CCCN(Cc3cnn(C(C)C)c3)CC2)cn1`: the cytotoxicity at 70.5 h stood at 17.6%.

As to `Cc1nc(C2CCCN2CC(=O)Nc2c(C)nn(C)c2C)no1` (stereo not drawn), the cytotoxicity at 70.5 h is -3.49%.

For the molecule `Cc1nc(C)n(CC2CN(CCc3cccs3)CCO2)n1` (stereo not drawn), the cytotoxicity at 70.5 h was -5.27%.

For the molecule `O=C(C1CCCC1)N1CCCC1c1nnc2n1CCCCC2` (stereo not drawn), the cytotoxicity at 70.5 h worked out at 1.94%.

As for `Cc1cc(F)ccc1NC(=O)NCC(C)N1CCOCC1` (stereo not drawn), the cytotoxicity at 70.5 h was 32.7%.

Consider `CC1CCCN(C(=O)Nc2ccc(F)c(C(N)=O)c2)C1` (stereo not drawn), for which the cytotoxicity at 70.5 h is -1.11%.

As to `CCN(CC)C(CNS(=O)(=O)c1ccc(C(N)=O)cc1)c1ccco1` (stereo not drawn), the cytotoxicity at 70.5 h is -0.105%.

Take `NC(=O)c1cc(NC(=O)N2CCOCC2)ccc1F`: the cytotoxicity at 70.5 h came to 9.19%.

As to `CC(CNC(=O)Nc1ccc(F)cc1Br)N1CCOCC1` (stereo not drawn), the cytotoxicity at 70.5 h was found to be 31.4%.

`c1ccc2c(N3CCOC(Cn4cccn4)C3)ncnc2c1` (stereo not drawn): the cytotoxicity at 70.5 h was -4.3%.

Consider `CSC(C)(C)CNC(=O)NC(c1nnc2n1CCC2)C(C)C` (stereo not drawn), for which the cytotoxicity at 70.5 h was -3.59%.

Consider `O=C(CC1CN(Cc2ccccc2)CCO1)NCCN1CCOCC1` (stereo not drawn), for which the cytotoxicity at 70.5 h came out at 37.5%.

`Cc1nsc(N2CCCN(C(=O)NCc3cc(C)on3)CC2)n1`: the cytotoxicity at 70.5 h is -1.32%.

In the case of `Cc1noc(CNC(=O)N2CCN(c3nc(C)c(C)s3)CC2)n1`, the cytotoxicity at 70.5 h was -3.61%.

On to `Cc1nc(N2CCN(C(=O)NCc3cscn3)CC2)sc1C`, for which the cytotoxicity at 70.5 h was -2.92%.

As to `CC(CNC(=O)Nc1ccc(F)cc1-n1cccc1)N1CCOCC1` (stereo not drawn), the cytotoxicity at 70.5 h came out at 4.4%.

Regarding `Cn1cc(CCNC(=O)N2CCCC(Cc3nccn3C)C2)cn1` (stereo not drawn), the cytotoxicity at 70.5 h is -0.841%.

Take `Cn1ccnc1CC1CCCN(C(=O)NCCOc2cccnc2)C1` (stereo not drawn): the cytotoxicity at 70.5 h was 1.38%.

With `CCc1nncn1CCNC(=O)N1CCCC(Cc2nccn2C)C1` (stereo not drawn), the cytotoxicity at 70.5 h was 32.8%.

In the case of `Cc1cc(C)n(CCC(=O)N2CCCC(n3nc(C)nc3C)C2)n1` (stereo not drawn), the cytotoxicity at 70.5 h is -6.97%.

Regarding `N#CC1(NC(=O)CNCCn2cccn2)CCCCC1`, the cytotoxicity at 70.5 h is -1.06%.

As to `CCC(CNC1CCN(C(C)=O)CC1)Oc1cccc(C)c1` (stereo not drawn), the cytotoxicity at 70.5 h is -6.04%.

For the molecule `Cc1sc2nc(C(F)(F)F)nc(N3CCCN(C)CC3)c2c1C`, the cytotoxicity at 70.5 h amounted to 22.1%.

In the case of `Cc1sc2nc(C(F)(F)F)nc(N3CCN(S(C)(=O)=O)CC3)c2c1C`, the cytotoxicity at 70.5 h was -4.32%.

Take `CCCc1nc(C)c(C(=O)NC2CCN(C3CC3)C2)s1` (stereo not drawn): the cytotoxicity at 70.5 h is 14.1%.

For `CN(Cc1ccc2c(c1)OCO2)Cc1nc(-c2ccco2)no1`, the cytotoxicity at 70.5 h was -10.9%.

For `CCOc1ccc(CNCc2ccc(C(=O)NC)cc2)cc1OCC`, the cytotoxicity at 70.5 h was -7.21%.

As for `CNC(=O)c1ccc(CNCc2ccc(SC)c(OC)c2)cc1`, the cytotoxicity at 70.5 h came to 27%.

Regarding `CC(C)c1ncc2c(n1)CN(Cc1nc3c(F)cccc3[nH]1)CC2`, the cytotoxicity at 70.5 h came to 21%.

Turning to `N#Cc1ccc(C(=O)NS(=O)(=O)c2ccc(C#N)c(Cl)c2)cc1`, the cytotoxicity at 70.5 h is -8.83%.

As to `CN(C(=O)CNCCn1cccn1)C1(C#N)CCCCC1`, the cytotoxicity at 70.5 h was -3.85%.

As for `Cc1cc(C)c(C(=O)N2CCOC(c3cccs3)C2)c(=O)[nH]1` (stereo not drawn), the cytotoxicity at 70.5 h was -6.92%.

For the molecule `COc1ccnc(NC(=O)c2cscc2C)c1`, the cytotoxicity at 70.5 h is -2.28%.

Consider `COc1cc(NC(=O)c2cscn2)ncn1`, for which the cytotoxicity at 70.5 h was found to be 22.1%.

For the molecule `N#Cc1ccc(C(=O)NS(=O)(=O)c2ccc(F)c(F)c2)cc1`, the cytotoxicity at 70.5 h was 28.9%.

Take `O=C(NCCSCc1cccs1)C1CCCN(C(=O)N2CCCC2)C1` (stereo not drawn): the cytotoxicity at 70.5 h is -6.45%.

For `Cc1[nH]ncc1C(=O)N1CCOC(c2cccs2)C1` (stereo not drawn), the cytotoxicity at 70.5 h was 25.7%.

With `c1cncc(CNc2cccc(OCCN3CCCCC3)c2)c1`, the cytotoxicity at 70.5 h is -11.5%.

For `CCOC(C)c1noc(CN2CCN(Cc3ccno3)CC2)n1` (stereo not drawn), the cytotoxicity at 70.5 h is -3.49%.

Turning to `CCOC(C)c1noc(CN2CCCN(c3ccccn3)CC2)n1` (stereo not drawn), the cytotoxicity at 70.5 h was -12.6%.

With `CC(C)c1nc(CC(=O)N(C)Cc2ccc3c(c2)OCO3)cs1`, the cytotoxicity at 70.5 h is -6.29%.

In the case of `CCN(C(c1cccnc1)c1ccc(F)c(F)c1)S(C)(=O)=O` (stereo not drawn), the cytotoxicity at 70.5 h was -4.7%.

As to `CCOc1ccc(CC(=O)Nc2cnccc2SCCCO)cc1`, the cytotoxicity at 70.5 h is -6.43%.

Regarding `CCN(C(c1ccc(OC)cc1)c1cccnc1)S(C)(=O)=O` (stereo not drawn), the cytotoxicity at 70.5 h was -9.72%.

`CC1CCCN(C(=O)CCNS(=O)(=O)c2cccnc2)C1` (stereo not drawn): the cytotoxicity at 70.5 h was 1.82%.

Regarding `O=C(NC1CC1)C1CCCN1c1ncnc2ccsc12` (stereo not drawn), the cytotoxicity at 70.5 h is -9.43%.

In the case of `O=C(CCNS(=O)(=O)c1ccccc1)N1CCOC(c2ccccc2)C1` (stereo not drawn), the cytotoxicity at 70.5 h is -18%.

Consider `CCN(CC(=O)N(C)C)C(=O)c1cc(-c2cccc(Cl)c2)no1`, for which the cytotoxicity at 70.5 h turned out to be 3.05%.

Regarding `CCN(CC)C(=O)c1cc(-c2cccc(Cl)c2)no1`, the cytotoxicity at 70.5 h is -5.28%.

For `CC(CC#N)N1CCN(C(=O)OC(C)(C)C)CC1` (stereo not drawn), the cytotoxicity at 70.5 h was 13.3%.

Turning to `c1cc(-c2noc(CN3CCc4c(ncn4C4CC4)C3)n2)cs1`, the cytotoxicity at 70.5 h was -20.1%.

As to `CCNC(=O)CN(CC)C(=O)c1cc(-c2cccc(Cl)c2)no1`, the cytotoxicity at 70.5 h is -0.184%.

For the molecule `CC(C)CC(C#N)NC(=O)COC1CCCCC1` (stereo not drawn), the cytotoxicity at 70.5 h was -8.86%.

For the molecule `CCN(CC)C(=O)CN(C)C(=O)c1cc(-c2cccc(Cl)c2)no1`, the cytotoxicity at 70.5 h was -15.3%.

Consider `CN(CCc1ccncc1)C(=O)C1CSCN1C(=O)C1CCCC1` (stereo not drawn), for which the cytotoxicity at 70.5 h is -5.06%.

Turning to `CC(=O)Nc1cccc(CNC(=O)N(C)Cc2ccccc2)c1`, the cytotoxicity at 70.5 h is -8.01%.

Turning to `O=C(NCCc1nnc2n1CCC2)c1ccccc1OC1CCCC1`, the cytotoxicity at 70.5 h was -9.31%.

On to `O=S(=O)(c1cccnc1)N1CCCC1COc1ccccc1` (stereo not drawn), for which the cytotoxicity at 70.5 h is -4.52%.

For the molecule `CCN(CCC(F)(F)F)S(=O)(=O)c1cccc(F)c1C#N`, the cytotoxicity at 70.5 h was -4.04%.

For `CC(C)Oc1ccccc1C(=O)NCCc1nncn1C`, the cytotoxicity at 70.5 h is -6.83%.

Turning to `c1ccc(-c2nc(CN3CCn4c(nnc4C4CC4)C3)no2)cc1`, the cytotoxicity at 70.5 h was -9.58%.

For `CC(C)C1CN(S(=O)(=O)Cc2cccc(C#N)c2)CCS1` (stereo not drawn), the cytotoxicity at 70.5 h is -9.85%.

On to `CC(C)C1CN(S(=O)(=O)c2ccc(C#N)cc2)CCS1` (stereo not drawn), for which the cytotoxicity at 70.5 h was -11.1%.

With `Cc1cccc(-c2noc(CN3CCn4c(nnc4C4CC4)C3)n2)c1`, the cytotoxicity at 70.5 h was -5%.

As for `c1coc(-c2noc(CN3CCc4c(ncn4C4CC4)C3)n2)c1`, the cytotoxicity at 70.5 h worked out at 1.12%.

As to `CC(C)CC(CCO)CNC(=O)N1CC(C)(C)C1(C)C` (stereo not drawn), the cytotoxicity at 70.5 h was -7.83%.

As to `Cc1ccc(OCCN(C)Cc2ccc(S(=O)(=O)N(C)C)o2)cc1`, the cytotoxicity at 70.5 h is -5.02%.

On to `Cc1ccc(-c2nnc(C(C)N3CCc4cncnc4C3)o2)cc1` (stereo not drawn), for which the cytotoxicity at 70.5 h was 1.38%.

On to `CC(O)CN1CCC(CN(C)C(=O)NC2CC2)CC1` (stereo not drawn), for which the cytotoxicity at 70.5 h is -1.96%.

With `NC(=O)CN(Cc1ccc(Br)cc1)C(=O)c1cccnc1`, the cytotoxicity at 70.5 h is -3.52%.

On to `O=C(Nc1ccccc1Cn1cccn1)N1CCCC(N2CCCC2)C1` (stereo not drawn), for which the cytotoxicity at 70.5 h worked out at 16.1%.

For the molecule `COC(=O)C(C)(C)S(=O)(=O)c1ccc(Br)cc1`, the cytotoxicity at 70.5 h is -1.38%.

Consider `Cc1ccc(N(C)C2CCN(C(=O)c3n[nH]c4c3CCC4)CC2)nn1`, for which the cytotoxicity at 70.5 h was -3.25%.

For `CC(C)(C(=O)O)S(=O)(=O)c1ccc(Br)cc1`, the cytotoxicity at 70.5 h was determined as 0.0653%.

For the molecule `O=C1C(Sc2nnnn2C2CC2)CCN1c1ccccc1Cl` (stereo not drawn), the cytotoxicity at 70.5 h was -6.47%.

On to `Cc1nc(O)ccc1C(=O)NCc1ncccc1F`, for which the cytotoxicity at 70.5 h was -2.33%.

On to `N#CCCN(CC(F)(F)F)C(=O)c1cc(-n2cccn2)ccn1`, for which the cytotoxicity at 70.5 h is -3.35%.

For `Cc1cc(CNC2(c3ccccc3F)CC2)no1`, the cytotoxicity at 70.5 h was -4.02%.

`Cc1nc(CN(C)c2cc(N3CCCC3CO)ncn2)cs1` (stereo not drawn): the cytotoxicity at 70.5 h was -3.26%.

Take `Cc1cnn(CCNCc2c(C)nn(-c3ccccc3)c2C)c1`: the cytotoxicity at 70.5 h stood at 2.45%.

In the case of `N#Cc1ccnc(N2CCN(C(=O)c3ccc4c(c3)CCO4)CC2)c1`, the cytotoxicity at 70.5 h was -3.35%.

Turning to `O=S(=O)(NCCSc1nccn1C1CC1)c1ccccc1`, the cytotoxicity at 70.5 h was -3.08%.

Turning to `COCCN(CCOC)C(=O)c1cc(F)cc2[nH]cnc12`, the cytotoxicity at 70.5 h was -4.53%.

Turning to `CCN(CC)C(=O)c1cccc(Cn2nc(C)cc2C)c1`, the cytotoxicity at 70.5 h is -8.82%.

`Cc1nn(CN(CC2CCOC2)C2CC2)c(=O)c2ccccc12` (stereo not drawn): the cytotoxicity at 70.5 h was -3.01%.

For `N#Cc1c(Cl)nsc1N1CCN(CC2CCCCC2)CC1`, the cytotoxicity at 70.5 h turned out to be 0.793%.

With `COC(=O)NC1(C(=O)Nc2ccc(-c3cc[nH]n3)cc2)CCCC1`, the cytotoxicity at 70.5 h is -0.955%.

As for `COC(=O)NC1(C(=O)Nc2ccc(-c3ncc[nH]3)cc2)CCCC1`, the cytotoxicity at 70.5 h stood at 1.15%.

Consider `O=C(O)CC1CN(S(=O)(=O)c2cccc(F)c2)c2ccccc21` (stereo not drawn), for which the cytotoxicity at 70.5 h worked out at 22.7%.

Turning to `Cc1cc(NS(=O)(=O)CC2CCCCO2)ccc1F` (stereo not drawn), the cytotoxicity at 70.5 h was -2.48%.

With `N#Cc1cc(NS(=O)(=O)CC2CCCCO2)ccc1F` (stereo not drawn), the cytotoxicity at 70.5 h was -0.517%.

Turning to `COCCCOC1CN(C(=O)c2[nH]nc3c2CCCC3)C1`, the cytotoxicity at 70.5 h came to 4%.

As for `CC(C)(C)OC(=O)N1CCCN1C(=O)c1cccc2cc[nH]c12`, the cytotoxicity at 70.5 h turned out to be 3.87%.

As for `Cc1ccc(-c2ncc(CNc3cnccc3CO)s2)o1`, the cytotoxicity at 70.5 h is -2.69%.

For the molecule `Cc1ncc(CNc2cnccc2CO)s1`, the cytotoxicity at 70.5 h is 6.67%.

Turning to `CSC1(CNC(=O)NC(C)c2ccc(F)cc2)CCOCC1` (stereo not drawn), the cytotoxicity at 70.5 h came to 6.41%.

For the molecule `COCCN(CCOC)C(=O)c1ccc(Cn2nc(C)cc2C)cc1`, the cytotoxicity at 70.5 h came out at 7.43%.

On to `Cc1cc(CN(CCCO)c2ccccc2)on1`, for which the cytotoxicity at 70.5 h was -0.833%.

Regarding `Cc1cc(CN(CCO)c2ccccc2)on1`, the cytotoxicity at 70.5 h worked out at 0.618%.

Consider `O=C(CN1CCC[C@@H]1C(=O)O)NCCOc1cccc(C(F)(F)F)c1`, for which the cytotoxicity at 70.5 h was -6.55%.

For `Cc1cc(F)c(S(=O)(=O)NCC(C)(C)N)cc1F`, the cytotoxicity at 70.5 h is -10.9%.

As for `CCC(N)C(=O)N1CCC(OCc2ccc(Cl)c(Cl)c2)CC1` (stereo not drawn), the cytotoxicity at 70.5 h stood at 8.03%.

(Values after ChEMBL document CHEMBL3507680, “University of Dundee, Gates Library screen for HepG2 cell viability”.)
